Data taken from patent US5807985A, “Oligopeptide compounds containing D-2-alkyltryptophan capable of promoting the release of growth hormone” (priority 1997, dated 1998).
Where two headings read alike, the source gives them in different places. Peptide text beside a SMILES is read from it.

Assays:
[1] = target: Human hypothalamus tissue; assay: Inhibition of 125I-Tyr-Ala-HEXARELIN binding to human hypothalamus tissue membranes; details: for IC50: human hypothalamus tissue; for percent of inhibition of 125I-Tyr-Ala-HEXARELIN specifically bound / specific binding of 125I-Tyr-Ala-HEXARELIN/0.1 mg membrane protein: hypothalamus
Method: (§1) The peptides of Examples 3 and 6 were further studied for inhibition of ^125 I--Tyr--Ala--HEXARELIN binding to human tissue. HEXARELIN is His--D--Mrp--Ala--Trp--D--Phe--Lys--NH2 where Mrp is 2-methyltryptophan.
(§2) Tissue membranes (0.1 mg protein) obtained from the heart and hypothalamus of two different adult subjects were incubated in triplicate with a subsaturating concentration (34 pM, about 48,000 cpm, for heart tissue and 42 pM, about 60,000 cpm, for hypothalamus tissue) of ^125 I--Tyr--Ala--HEXARELIN for 40 min at 0° C. in the absence and in the presence of increasing concentrations of the indicated unlabelled peptides. The value in parentheses represents the percent of inhibition of ^125 1I--Tyr--Ala--HEXARELIN specifically bound.
(§3) The specific binding of ^125 I--Tyr--Ala--HEXARELIN/0.1 mg membrane protein is expressed as a percent of total radioactivity added.

Human heart tissue = assay: Inhibition of 125I-Tyr-Ala-HEXARELIN binding to human heart tissue membranes; details: for percent of inhibition of 125I-Tyr-Ala-HEXARELIN specifically bound / specific binding of 125I-Tyr-Ala-HEXARELIN/0.1 mg membrane protein: heart; for IC50: human heart tissue
Method: as §1, §2, §3

[2] = mean of subjects 1 and 2, read-out: mean IC50 value
[3] = subject 1, read-out: IC50 value
[4] = subject 2, read-out: IC50 value

Cc1[nH]c2ccccc2c1C[C@@H](NC(=O)[C@@H](N)Cc1cnc[nH]1)C(=O)N[C@@H](C)C(=O)N[C@@H](Cc1c[nH]c2ccccc12)C(=O)N[C@H](Cc1ccccc1)C(=O)N[C@@H](CCCCN)C(N)=O [HEXARELIN, His--D--Mrp--Ala--Trp--D--Phe--Lys--NH2] (HELM PEPTIDE1{H.[Cc1[nH]c2ccccc2c1C[C@@H](N[*:1])C(=O)[*:2]].A.W.[dF].K.[am]}$$$$V2.0)
IC50 [1, 2]: 7 nM
IC50 [1, 3]: 8.9 nM
IC50 [1, 4]: 5 nM
percent of inhibition of 125I-Tyr-Ala-HEXARELIN specifically bound ([1]; 0.1 nM peptide, subject 1): 3%
specific binding of 125I-Tyr-Ala-HEXARELIN/0.1 mg membrane protein ([1]; 0.1 nM peptide, subject 1): 10.7% of total radioactivity
percent of inhibition of 125I-Tyr-Ala-HEXARELIN specifically bound ([1]; 0.1 nM peptide, subject 2): 4%
specific binding of 125I-Tyr-Ala-HEXARELIN/0.1 mg membrane protein ([1]; 0.1 nM peptide, subject 2): 9.1% of total radioactivity
percent of inhibition of 125I-Tyr-Ala-HEXARELIN specifically bound ([1]; 1 nM peptide, subject 1): 16%
specific binding of 125I-Tyr-Ala-HEXARELIN/0.1 mg membrane protein ([1]; 1 nM peptide, subject 1): 9.6% of total radioactivity
percent of inhibition of 125I-Tyr-Ala-HEXARELIN specifically bound ([1]; 1 nM peptide, subject 2): 19%
specific binding of 125I-Tyr-Ala-HEXARELIN/0.1 mg membrane protein ([1]; 1 nM peptide, subject 2): 7.7% of total radioactivity
percent of inhibition of 125I-Tyr-Ala-HEXARELIN specifically bound ([1]; 10 nM peptide, subject 1): 51%
specific binding of 125I-Tyr-Ala-HEXARELIN/0.1 mg membrane protein ([1]; 10 nM peptide, subject 1): 5.2% of total radioactivity
percent of inhibition of 125I-Tyr-Ala-HEXARELIN specifically bound ([1]; 10 nM peptide, subject 2): 67%
specific binding of 125I-Tyr-Ala-HEXARELIN/0.1 mg membrane protein ([1]; 10 nM peptide, subject 2): 3.1% of total radioactivity
percent of inhibition of 125I-Tyr-Ala-HEXARELIN specifically bound ([1]; 100 nM peptide, subject 1): 89%
specific binding of 125I-Tyr-Ala-HEXARELIN/0.1 mg membrane protein ([1]; 100 nM peptide, subject 1): 1.2% of total radioactivity
percent of inhibition of 125I-Tyr-Ala-HEXARELIN specifically bound ([1]; 100 nM peptide, subject 2): 93%
specific binding of 125I-Tyr-Ala-HEXARELIN/0.1 mg membrane protein ([1]; 100 nM peptide, subject 2): 0.7% of total radioactivity
percent of inhibition of 125I-Tyr-Ala-HEXARELIN specifically bound ([1]; 1000 nM peptide, subject 1): 100%
specific binding of 125I-Tyr-Ala-HEXARELIN/0.1 mg membrane protein ([1]; 1000 nM peptide, subject 1): 0% of total radioactivity
percent of inhibition of 125I-Tyr-Ala-HEXARELIN specifically bound ([1]; 1000 nM peptide, subject 2): 100%
specific binding of 125I-Tyr-Ala-HEXARELIN/0.1 mg membrane protein ([1]; 1000 nM peptide, subject 2): 0% of total radioactivity
percent of inhibition of 125I-Tyr-Ala-HEXARELIN specifically bound (Human heart tissue; 0.1 nM peptide, subject 1): 4%
specific binding of 125I-Tyr-Ala-HEXARELIN/0.1 mg membrane protein (Human heart tissue; 0.1 nM peptide, subject 1): 20.1% of total radioactivity
percent of inhibition of 125I-Tyr-Ala-HEXARELIN specifically bound (Human heart tissue; 0.1 nM peptide, subject 2): 5%
specific binding of 125I-Tyr-Ala-HEXARELIN/0.1 mg membrane protein (Human heart tissue; 0.1 nM peptide, subject 2): 22.8% of total radioactivity
percent of inhibition of 125I-Tyr-Ala-HEXARELIN specifically bound (Human heart tissue; 1 nM peptide, subject 1): 20%
specific binding of 125I-Tyr-Ala-HEXARELIN/0.1 mg membrane protein (Human heart tissue; 1 nM peptide, subject 1): 16.9% of total radioactivity
percent of inhibition of 125I-Tyr-Ala-HEXARELIN specifically bound (Human heart tissue; 1 nM peptide, subject 2): 28%
specific binding of 125I-Tyr-Ala-HEXARELIN/0.1 mg membrane protein (Human heart tissue; 1 nM peptide, subject 2): 17.3% of total radioactivity
percent of inhibition of 125I-Tyr-Ala-HEXARELIN specifically bound (Human heart tissue; 10 nM peptide, subject 1): 51%
specific binding of 125I-Tyr-Ala-HEXARELIN/0.1 mg membrane protein (Human heart tissue; 10 nM peptide, subject 1): 10.4% of total radioactivity
percent of inhibition of 125I-Tyr-Ala-HEXARELIN specifically bound (Human heart tissue; 10 nM peptide, subject 2): 56%
specific binding of 125I-Tyr-Ala-HEXARELIN/0.1 mg membrane protein (Human heart tissue; 10 nM peptide, subject 2): 10.5% of total radioactivity
percent of inhibition of 125I-Tyr-Ala-HEXARELIN specifically bound (Human heart tissue; 100 nM peptide, subject 1): 92%
specific binding of 125I-Tyr-Ala-HEXARELIN/0.1 mg membrane protein (Human heart tissue; 100 nM peptide, subject 1): 1.7% of total radioactivity
percent of inhibition of 125I-Tyr-Ala-HEXARELIN specifically bound (Human heart tissue; 100 nM peptide, subject 2): 90%
specific binding of 125I-Tyr-Ala-HEXARELIN/0.1 mg membrane protein (Human heart tissue; 100 nM peptide, subject 2): 2.4% of total radioactivity
percent of inhibition of 125I-Tyr-Ala-HEXARELIN specifically bound (Human heart tissue; 1000 nM peptide, subject 1): 100%
specific binding of 125I-Tyr-Ala-HEXARELIN/0.1 mg membrane protein (Human heart tissue; 1000 nM peptide, subject 1): 0% of total radioactivity
percent of inhibition of 125I-Tyr-Ala-HEXARELIN specifically bound (Human heart tissue; 1000 nM peptide, subject 2): 100%
specific binding of 125I-Tyr-Ala-HEXARELIN/0.1 mg membrane protein (Human heart tissue; 1000 nM peptide, subject 2): 0% of total radioactivity
IC50 (Human heart tissue; [2]): 9.5 nM
IC50 (Human heart tissue; [3]): 10.6 nM
IC50 (Human heart tissue; [4]): 8.3 nM
